Data as given in patent US10519134B2, “Pyrazole compounds and methods of making and using same” (Lundbeck La Jolla Research Center, Inc., priority 2015, dated 2019).

How the values were obtained:
Format in all cases: biochemical
MAGL [1] = biological target: T1, MAGL (Homo sapiens, UniProt Q99685); test: In vitro competitive activity-based protein profiling (human), MAGL gel band
T1 construct: Proteomes (human prefrontal cortex or cell membrane fractions); from tissue; host or cells: human prefrontal cortex (or cell membrane fractions)
T1 sequence (Q99685 1-303): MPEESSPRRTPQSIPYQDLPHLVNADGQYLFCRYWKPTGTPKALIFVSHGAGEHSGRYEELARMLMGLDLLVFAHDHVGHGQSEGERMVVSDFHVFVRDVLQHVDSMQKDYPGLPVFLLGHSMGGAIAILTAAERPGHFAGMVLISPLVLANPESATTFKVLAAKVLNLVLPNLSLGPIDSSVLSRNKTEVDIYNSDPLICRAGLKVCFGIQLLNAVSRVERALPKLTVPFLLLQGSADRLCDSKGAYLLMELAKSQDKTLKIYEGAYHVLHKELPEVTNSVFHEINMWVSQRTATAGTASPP
Procedure, shortened: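 Human prefrontal cortex or cell membrane proteomes (1.0-2.0 mg/mL protein) preincubated with inhibitors 30 min at 37° C, then labelled with FP-Rh or JW912 probe 30 min at room temperature. Residual MAGL activity read as fluorescent gel-band intensity after SDS-PAGE.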

FAAH = biological target: T2, FAAH (Mus musculus, UniProt O08914); test: In vitro competitive activity-based protein profiling (mouse), FAAH gel band; conditions: read-out: FAAH % inh. 1 μM
T2 construct: Proteomes (mouse brain membrane fraction or cell lysates); from tissue; host or cells: mouse brain membrane fraction (or cell lysates)
T2 sequence (O08914 1-579): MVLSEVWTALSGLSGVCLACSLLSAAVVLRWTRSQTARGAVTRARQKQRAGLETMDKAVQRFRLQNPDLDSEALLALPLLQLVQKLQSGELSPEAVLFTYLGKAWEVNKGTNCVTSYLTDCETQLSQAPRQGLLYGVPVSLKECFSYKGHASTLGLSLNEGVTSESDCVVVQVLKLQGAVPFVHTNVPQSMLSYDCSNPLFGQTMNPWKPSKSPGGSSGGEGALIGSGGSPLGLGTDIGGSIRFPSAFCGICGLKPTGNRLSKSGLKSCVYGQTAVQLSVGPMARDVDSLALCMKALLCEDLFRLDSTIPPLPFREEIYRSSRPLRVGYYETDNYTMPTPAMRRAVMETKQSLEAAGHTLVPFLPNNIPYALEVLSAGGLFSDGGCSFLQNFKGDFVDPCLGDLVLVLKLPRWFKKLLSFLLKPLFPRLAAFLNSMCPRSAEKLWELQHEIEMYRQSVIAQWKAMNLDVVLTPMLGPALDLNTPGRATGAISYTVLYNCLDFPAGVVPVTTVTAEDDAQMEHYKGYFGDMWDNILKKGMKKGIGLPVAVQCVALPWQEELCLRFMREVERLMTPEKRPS
Procedure, shortened: (§1)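 Residual enzyme activity is taken from in-gel fluorescence after SDS-PAGE. Proteome from mouse brain membranes or cell lysates (total protein 1.0 mg/mL) sees inhibitor for 30 min, then FP-Rh or HT-01 probe (50 μM DMSO stock) for 30 min, both steps at 37 °C.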

MAGL [2] = biological target: T3, MAGL (Mus musculus, UniProt O35678); test: In vitro competitive activity-based protein profiling (mouse), MAGL gel band; conditions: read-out: MAGL % inh. 1 μM
T3 construct: Proteomes (mouse brain membrane fraction or cell lysates); from tissue; host or cells: mouse brain membrane fraction (or cell lysates)
T3 sequence (O35678 1-303): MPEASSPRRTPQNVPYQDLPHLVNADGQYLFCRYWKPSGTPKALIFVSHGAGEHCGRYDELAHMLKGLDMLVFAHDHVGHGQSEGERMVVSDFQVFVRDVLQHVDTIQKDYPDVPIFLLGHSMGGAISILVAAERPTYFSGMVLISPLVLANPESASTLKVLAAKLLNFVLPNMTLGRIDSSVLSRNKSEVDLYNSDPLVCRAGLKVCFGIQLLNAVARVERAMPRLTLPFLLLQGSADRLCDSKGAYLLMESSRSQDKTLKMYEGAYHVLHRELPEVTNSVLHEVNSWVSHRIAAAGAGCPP
Procedure, shortened: as §1

SMILES	IC50 (MAGL [1]) [nM]	inhibition at 1 µM (FAAH) [%]	inhibition at 1 µM (MAGL [2]) [%]
CC(=O)N1CC2(CCN(c3cc(C(F)(F)F)ccc3CN3CCN(C(=O)n4ccc(NS(C)(=O)=O)n4)CC3)CC2)C1 [Example 228, N-(1-(4-(2-(2-acetyl-2,7-diazaspiro[3.5]nonan-7-yl)-4-(trifluoromethyl)benzyl)piperazine-1-carbonyl)-1H-pyrazol-3-yl) methanesulfonamide]	≤ 100	0 to 25	≥ 75
CS(=O)(=O)Nc1ccn(C(=O)N2CCN(Cc3ccc(Cl)cc3N3CCC4(CC3)CN(S(C)(=O)=O)C4)CC2)n1 [Example 230, N-(1-(4-(4-chloro-2-(2-(methylsulfonyl)-2,7-diazaspiro[3.5]nonan-7-yl)benzyl)piperazine-1-carbonyl)-1H pyrazol-3-yl) methanesulfonamide]	≤ 100	0 to 25	≥ 75
CN(C)C(=O)C1CCN(c2cc(C(F)(F)F)ccc2CN2CCN(C(=O)n3ccc(NS(C)(=O)=O)n3)CC2)CC1 [Example 231, N,N-dimethyl-1-(2-((4-(3-(methylsulfonamido)-1H-pyrazole-1-carbonyl)piperazin-1-yl)methyl)-5-(trifluoromethyl)phenyl)piperidine-4-carboxamide]	≤ 100	0 to 25	≥ 75
CS(=O)(=O)Nc1ccn(C(=O)N2CCN(Cc3ccc(C(F)(F)F)cc3N3CCC4(CC3)CCN(S(C)(=O)=O)C4)CC2)n1 [Example 234, N-(1-(4-(2-(2-(methylsulfonyl)-2,8-diazaspiro[4.5]decan-8-yl)-4-(trifluoromethyl)benzyl)piperazine-1-carbonyl)-1H-pyrazol-3-yl) methanesulfonamide]	≤ 100	0 to 25	≥ 75
CS(=O)(=O)Nc1ccn(C(=O)N2CCN(Cc3ccc(C(F)(F)F)cc3N3CCC4(CCN(S(C)(=O)=O)CC4)C3)CC2)n1 [Example 235, N-(1-(4-(2-(8-(methylsulfonyl)-2,8-diazaspiro[4.5]decan-2-yl)-4-(trifluoromethyl)benzyl)piperazine-1-carbonyl)-1H-pyrazol-3-yl) methanesulfonamide]	≤ 100	0 to 25	≥ 75
CS(=O)(=O)Nc1ccn(C(=O)N2CCN(Cc3ccc(Cl)c(N4CCCCC4)c3)CC2)n1 [Example 236, N-(1-(4-(4-chloro-3-(piperidin-1-yl)benzyl)piperazine-1-carbonyl)-1H-pyrazol-3-yl) methanesulfonamide]	≤ 100	0 to 25	≥ 75

Second part, the compound after the results:

IC50 (MAGL [1]) [nM]	inhibition at 1 µM (FAAH) [%]	inhibition at 1 µM (MAGL [2]) [%]	SMILES
≤ 100	0 to 25	≥ 75	CC(C)n1cc(-c2cc(CN3CCN(C(=O)n4ccc(NS(C)(=O)=O)n4)CC3)ccc2Cl)cn1 [Example 237, N-(1-(4-(4-chloro-3-(1-isopropyl-1H-pyrazol-4-yl)benzyl)piperazine-1-carbonyl)-1H-pyrazol-3-yl) methanesulfonamide]
100 to 1000	0 to 25	≥ 75	CS(=O)(=O)Nc1ccn(C(=O)N2CCN(Cc3ccc(C(F)(F)F)cc3N3CCC(c4nnn[nH]4)CC3)CC2)n1 [Example 240, N-(1-(4-(2-(4-(1H-tetrazol-5-yl)piperidin-1-yl)-4-(trifluoromethyl)benzyl)piperazine-1-carbonyl)-1H-pyrazol-3-yl) methanesulfonamide]
≤ 100	0 to 25	≥ 75	CS(=O)(=O)Nc1ccn(C(=O)N2CCN(Cc3ccc(C(F)(F)F)cc3N3CCC(C(N)=O)CC3)CC2)n1 [Example 250, 1-(2-((4-(3-(methylsulfonamido)-1H-pyrazole-1-carbonyl)piperazin-1-yl)methyl)-5-(trifluoromethyl)phenyl)piperidine-4-carboxamide]
≤ 100	0 to 25	≥ 75	Cc1cc(CN2CCCC23CCN(C(=O)n2ccc(NC(=O)C(F)F)n2)CC3)ccc1Cl [Example 257, N-(1-(1-(4-chloro-3-methylbenzyl)-1,8-diazaspiro[4.5]decane-8-carbonyl)-1H-pyrazol-3-yl)-2,2-difluoroacetamide]
